Assay results: patent publication US12115182B2, “Adenosine A2A agonists for the treatment of cytokine storm syndrome” (priority 2021, dated 2024)
Entries after “also recorded” stand apart in the source; their conditions may differ.

Assays:
[1] = Plasma levels of regadenoson in COVID-19 patients (LC-MS); type: in vivo, human; conditions: loading dose then 1.44 μg/kg/hr for 6 hours
Protocol: In cohort 1 of this trial, we tested the safety, tolerability, and toxicity of regadenoson in 5 COVID-19 patients (WHO stages 4-5) receiving supplemental oxygen without mechanical ventilation. All subjects received an infused loading dose of 5.0 μg/kg up to a maximum of 400 μg over 30 minutes, followed by a maintenance dose of 1.44 μg/kg/hr for 6 hours. Toxicity of regadenoson was graded by using Common Terminology for Adverse Events Criteria. Vital signs, pulse oximetry, arterial blood gas, laboratory studies, and electrocardiograms were performed on a schedule commensurate with level of care to identify potential risk of the study drug during and 12 hours post infusion. The trial was monitored by an NIH designated DSMB. Peripheral blood samples were collected at 4 timepoints. Along with clinical monitoring, plasma levels of cytokines (14-plex Luminex panel) were measured at various time points. Cytokine data were analyzed by SAS 9.5 PROC MIXED. Activation of peripheral blood mononuclear cells including iNKT cells was analyzed by flow cytometry. Flow cytometry data were analyzed by FCS Express 7 Research edition and GraphPad Prism v9. The plasma levels of regadenoson were determined via liquid chromatography-mass spectrometry.

[2] = day 7, Alzet minipump 80 μg/ml in PBS
[3] = system: MMP-9; experiment: Gelatin zymography of plasma MMP-9 in lung transplant recipients; type: in vivo, human; conditions: low and high dose vs control, 30 minutes after 1st and 2nd lung reperfusion
Protocol: (§1) We designed this trial mainly as a Phase I safety and feasibility study that would allow an optimal infusional dose to be determined based on dose-limiting toxicities identified in lung transplant recipients. We also evaluated the potential efficacy by clinical outcomes and the lab evaluation of various cytokines/chemokines, DAMPs and enzymes. Blood was drawn for cytokine/chemokine, DAMPs and MMP-2/-9 analysis at the following different timepoints: 1) before infusion, 2) 15 minutes before reperfusion of the 1st lung, 3) 30 minutes after reperfusion of 1st lung, 4) 30 minutes after reperfusion of 2nd lung, and 5) 6 hours after reperfusion of 1st lung. HMGB1 and sRAGE levels were measured using a customized human Cytokine/Chemokine multiplex immunoassay (Millipore Sigma, Burlington, MA) at The University of Virginia Flow Cytometry Core (RRID: SCR_01 7829) as previously described (LAU et al., J Heart Lung Transplant, (2020), 39:563-570).
Plasma samples were collected as described above. Protein concentrations were determined with BCA protein assay. Equal amounts of proteins (20 μg) were loaded in each lane for MMP-2 and-9 gelatinolytic activity detection by use of gelatin zymography as our previous publications (ZHAO et al., J Biol Chem, (2003), 278:15056-15064; ZHAO et al., Am J Physiol Lung Cell Mol Physiol, (2011), 300: L718-729).

[4] = system: lung transplant recipients; experiment: Regadenoson infusion in lung transplant recipients: clinical outcomes, hemodynamics, safety; type: in vivo
Protocol: The rational for dose selection was published in our previous publication (LAU et al., J Heart Lung Transplant, (2020), 39:563-570. We enrolled 4 additional lung transplantation patients that were treated with regadenoson at 1.44 ug/kg/hour for 12 hours. Our previous publication, infusion of regadenoson (1.44 ug/kg/hour for 12 hours) was safe in 10 lung transplantation patients. In the lung transplantation population, the median peak plasma levels of regadenoson infused were 1.68 ng/ml (range 1.2 to 1.9 ng/ml). Based on this preliminary result, we modified our protocol to a high dose infusion at the 2.88 ug/kg/hour for 12 hours in the last three lung transplantation recipients. FDA, NIH/NHLBI designated DSMB and institutional IRB approved our modification. The regadenoson infusion started at the time of skin incision, continued throughout the transplant procedure and into the immediate postoperative period for a total duration of 12 hours. Enrollment of bilateral lung transplant control patients
Primary end-points included dose-limiting toxicities and 30-day mortality. Secondary outcomes included PGD scores evaluated at 24, 48, and 72 hours, ICU length of stay, hospital length of stay, need for post-transplant extracorporeal membrane oxygenation, duration of mechanical ventilation post-operatively, and 12-month survival. Clinical parameters including blood pressure, heart rate, mean arterial pressure, pulmonary arterial pressure, were monitored and collected. Continuous variables are listed as mean and standard deviation, whereas categorical variables are presented as counts.
Statistical differences of cytokine/chemokines, heart rates and blood pressures between groups were determined by two-way ANOVA followed by Tukey's multiple comparison test (GraphPad Prism 9.0). The PGD scores were analyzed by chi-squared test. The intubation times and hospital LOS, ICU LOS were analyzed by ANOVA of log and Kruskal-Wallis. Data was reported as means±SD. P value equal or less than 0.05 was considered significant.

[5] = system: soluble receptor for advanced glycation end-products (sRAGE); experiment: Plasma sRAGE in lung transplant recipients; type: in vivo, human
Protocol: Blood was drawn for cytokine/chemokine, damage associated molecular patterns (DAMPs) at the following different timepoints: 1) before infusion (baseline), 2) 15 minutes before reperfusion of the 1st lung, 3) 30 minutes after reperfusion of 1st lung, 4) 30 minutes after reperfusion of 2nd lung, and 5) 6 hours after reperfusion of 1st lung.
The cytokines/chemokines, HMGB1 and sRAGE were determined at The University of Virginia Flow Cytometry Core (RRID: SCR 017829) as previously described (LAU et al., J Heart Lung Transplant, (2020), 39:563-570). The customized 11-plex cytokine panel detects IL-1, IL-2, IL-6, IL-7, IL-8, IL-10, IL-12P40, IL-12P70, IL-17, TNFa, and IFN-γ (Millipore Sigma, Burlington, MA).
as §1, with “Blood was drawn for cytokine/chemokine, DAMPs and MMP-2/-9 analysis at the following different timepoints: 1) before infusion, 2) 15 minutes before reperfusion of the 1st lung, 3) 30 minutes after reperfusion of 1st lung, 4) 30 minutes after reperfusion of 2nd lung, and 5) 6 hours after reperfusion of 1st lung.” left out

## CNC(=O)c1cnn(-c2nc(N)c3ncn([C@@H]4O[C@H](CO)[C@@H](O)[C@H]4O)c3n2)c1 [Regadenoson]
[1]
  median peak plasma levels of regadenoson: 14.24 ng/mL
  peak plasma levels of regadenoson, range: 3.64 to 78.64 ng/mL
[2]
  mean +/-SEM plasma level for Regadenoson: 7.6 ± 1.3 ng/mL
[3]
  gelatinolytic activity of MMP-9 in plasma: significantly decreased
[4]; 1.44 ug/kg/h vs control patients, p=0.024
  PGD scores at 24 hours post transplantation: significantly improved
[4]; 14 low dose-treated (1.44 ug/kg/h) and 3 high dose-treated (2.88 ug/kg/h) recipients
  drug related serious adverse events or dose limiting toxicities: no drug related serious adverse events or dose limiting toxicities were observed
[4]; both 1.44 and 2.88 ug/kg/h groups vs control patients
  PGD scores at 24 hours, 48 and 72 hours: also improved when compared with control patients but did not reach significance
[4]; during regadenoson infusion for 12 hours, P>0.05
  blood pressure, heart rate, mean arterial pressure and pulmonary arterial pressure: did not significantly alter
[4]; one subject, may not directly relate to regadenoson infusion
  seizure: A seizure was observed at the 36 hours post regadenoson infusion in one of the subjects
[4]; vs control patients
  hospital length of stay (LOS) and ICU LOS: reduced, but not significantly altered
  intubation time: trended to decrease
[5]; 30 minutes post 1st lung reperfusion (low dose) and 30 minutes post 2nd lung reperfusion (low and high dose), P<0.0001 vs control
  transplantation-induced plasma levels of sRAGE: significantly diminished; also recorded: significantly reduced
[5]; high dose, 30 minutes post the 1st lung reperfusion, P=0.0656
  plasma sRAGE level: decreased in trend
